Reference: patent publication US20240059703A1 (AMGEN INC., priority 2021, published 2024)

Assays:
KRAS G12C = KRAS G12C (Homo sapiens (Human), UniProt P01116, C118A/G12C); assay: 2 h coupled exchange assay; assay type: biochemical; details: Avg 2 h Coupled exchange IC50, 2 h compound pre-incubation
Protocol: The term “2 h coupled exchange assay” or “20 h coupled exchange assay” as used herein refers to the assay described in the Section entitled “BIOLOGICAL EVALUATION.”

[1] = test system: MIA PaCa-2 (human pancreatic carcinoma) cells; assay: Cell Viability Assay (CellTiter-Glo), MIA PaCa-2; assay type: cell-based
Protocol: Serially-diluted compound or DMSO was added to the cells, and plates were incubated at 37° C., 5% CO2 for 72 h. Cell viability was measured using a CellTiter-Glo® Luminescent Cell Viability Assay kit (Promega) according to the manufacturer's protocol. The luminescence signal of treated samples was normalized to DMSO control, and data were analyzed using a 4-parameter logistic model to calculate IC50 values.

[2] = test system: A549 (human lung carcinoma) cells; assay: Cell Viability Assay (CellTiter-Glo), A549; assay type: cell-based
Summary of the method: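 Seeding at 1.67E+04 cells/mL is followed by overnight attachment at 37° C., 5% CO2. Serially diluted compound is added for 72 h. Viability is read by CellTiter-Glo luminescence, scaled to DMSO and fitted (4-parameter logistic) to give IC50.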

[3] = SOS-mediated nucleotide exchange

Sequence of KRAS G12C (P01116 other isoform, or with tags, fused parts or gaps G12C/C118A): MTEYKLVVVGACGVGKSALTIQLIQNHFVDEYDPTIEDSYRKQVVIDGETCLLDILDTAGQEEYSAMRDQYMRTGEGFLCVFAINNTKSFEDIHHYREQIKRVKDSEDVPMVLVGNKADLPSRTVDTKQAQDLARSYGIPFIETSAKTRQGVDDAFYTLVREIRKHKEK

| IC50 (KRAS G12C) [nM] | IC50 ([1]; Homo sapiens, MIA PaCa-2, 72 h) [nM] | IC50 ([2]; Homo sapiens, A549, 72 h) [nM] | IC50 (KRAS G12C; [3]) [nM] | IC50 ([1]; 72 h) [nM] | IC50 ([2]; 72 h) [nM] | Compound |
| --- | --- | --- | --- | --- | --- | --- |
| 189 | 716 | > 5000 | – | – | – | C=CC(=O)N1CC2(CCN(c3nc4c(c(-c5ncccc5F)c3C#N)CCN(c3scnc3C)C4)C2)C1 [Example 21-10, 4-(3-fluoro-2-pyridinyl)-7-(4-methyl-1,3-thiazol-5-yl)-2-(2-(2-propenoyl)-2,6-diazaspiro[3.4]octan-6-yl)-5,6,7,8-tetrahydro-1,7-naphthyridine-3-carbonitrile] |
| – | 1430 | > 5000 | 180 | – | – | C=CC(=O)N1CC2(CCN(c3nc4c(c(-c5c(C)ccc6[nH]ncc56)c3C#N)COC(C(F)(F)F)C4)C2)C1 (stereo not drawn) [Example 13-99] |
| 789 | 495 | 14100 | – | – | – | C=CC(=O)N1CC2(CCN(c3nc4cc(-c5cncn5C)cnc4c(-c4ccccc4F)c3C#N)C2)C1 [Example 19-7, 4-(2-fluorophenyl)-7-(1-methyl-1H-imidazol-5-yl)-2-(2-(2-propenoyl)-2,6-diazaspiro[3.4]octan-6-yl)-1,5-naphthyridine-3-carbonitrile] |
| – | 200 | > 5000 | 64 | – | – | C=CC(=O)N1CC2(CCN(c3nc4c(c(-c5c(C)ccc6cnn(C)c56)c3C#N)[C@H]3C[C@@H](C4)C3)C2)C1 (single isomer, unassigned) [Example 13-133] |
| – | 921 | > 5000 | 106 | – | – | C=CC(=O)N1CC2(CCN(c3nc4ccccc4c(-c4c(C)ccc5[nH]ncc45)c3C)[C@H]2C)C1 (single isomer, unassigned) [Example 2-57] |
| – | 2160 | 6250 | 858 | – | – | C=CC(=O)N1CC2(CCN(c3nc4c(F)cccc4c(-c4c(C)ccc5[nH]ncc45)c3C#N)CC2(F)F)C1 [Example 1-43, 2-(5,5-difluoro-2-(2-propenoyl)-2,7-diazaspiro[3.5]nonan-7-yl)-8-fluoro-4-(5-methyl-1H-indazol-4-yl)-3-quinolinecarbonitrile] |
| 62 | 1120 | > 5000 | – | – | – | C=CC(=O)N1CC2(CCN(c3nc4cc(-c5scnc5C)ccc4c(-c4c(C)ccc5[nH]ncc45)c3C)C2)C1 [Example 15-3, 1-(6-(3-methyl-4-(5-methyl-1H-indazol-4-yl)-7-(4-methyl-1,3-thiazol-5-yl)-2-quinolinyl)-2,6-diazaspiro[3.4]octan-2-yl)-2-propen-1-one] |
| 701 | 5270 | > 25000 | – | – | – | C=CC(=O)N1CC2(CCN(c3nc4c(c(-c5cccc(C)c5C)n3)CC[C@H](c3scnc3C)C4)C2)C1 (single isomer, unassigned) [Example 22-2] |
| – | 5920 | 22800 | 456 | – | – | C=CC(=O)N1CC2(CCN(c3nc4c(c(-c5cccc6cccc(C)c56)n3)OCCC4)C2)C1 [Example 1-42, 1-(6-(4-(8-methyl-1-naphthalenyl)-7,8-dihydro-6H-pyrano[3,2-d]pyrimidin-2-yl)-2,6-diazaspiro[3,4]octan-2-yl)-2-propen-1-one] |
| – | 18 | 3740 | 37 | – | – | C=CC(=O)N1CC2(CCN(c3nc4c(c(-c5c(C)ccn6cncc56)c3C#N)C[C@H]3C[C@@H]4C3(C)C)C2)C1 [Example 12-19, (1R,9R)-10,10-dimethyl-6-(7-methylimidazo[1,5-a]pyridin-8-yl)-4-(2-(2-propenoyl)-2,6-diazaspiro[3.4]octan-6-yl)-3-azatricyclo[7.1.1.0^2,7] undeca-2,4,6-triene-5-carbonitrile] |
| 44 | 32 | > 5000 | – | – | – | C=CC(=O)N1CC2(CCN(c3nc4c(c(-c5c(C)ccc6[nH]ncc56)c3C)COC(C)(C)C4)C2)C1 (single isomer, unassigned) [Example 14-33, (P)-1-(6-(3,7,7-trimethyl-4-(5-methyl-1H-indazol-4-yl)-7,8-dihydro-5H-pyrano[4,3-b]pyridin-2-yl)-2,6-diazaspiro[3.4]octan-2-yl)-2-propen-1-one] |
| 97 | 776 | > 5000 | – | – | – | C=CC(=O)N1CC2(CCN(c3nc4c(c(-c5ccc(F)cc5Cl)c3C#N)CO[C@@H](c3scnc3C)C4)C2)C1 [Example 23-27, (7R)-4-(2-chloro-4-fluorophenyl)-7-(4-methyl-1,3-thiazol-5-yl)-2-(2-(2-propenoyl)-2,6-diazaspiro[3.4]octan-6-yl)-7,8-dihydro-5H-pyrano[4,3-b]pyridine-3-carbonitrile] |
| 957 | 5520 | 16100 | – | – | – | C=CC(=O)N1CC2(CCN(c3nc4c(c(-c5ccccc5F)c3C#N)CCN(C[C@@H]3CCC(=O)N3)C4)C2)C1 [Example 21-33, 4-(2-fluorophenyl)-7-(((2S)-5-oxo-2-pyrrolidinyl)methyl)-2-(2-(2-propenoyl)-2,6-diazaspiro[3.4]octan-6-yl)-5,6,7,8-tetrahydro-1,7-naphthyridine-3-carbonitrile] |
| – | – | – | 6700 | 2500 | 2910 | C=CC(=O)N1CC2(CCN(c3nc4c(c(-c5c(C)ccc6[nH]ncc56)c3C#N)CCC(C)(C)C4)C2)C1 (single isomer, unassigned) [Example 1-10, (M)-7,7-dimethyl-4-(5-methyl-1H-indazol-4-yl)-2-(2-(2-propenoyl)-2,6-diazaspiro[3.4]octan-6-yl)-5,6,7,8-tetrahydro-3-quinolinecarbonitrile] |
| 376 | 167 | > 25000 | – | – | – | C=CC(=O)N1CC2(CCN(c3nc4c(c(-c5c(C)ccc6[nH]ncc56)c3C)CCN(C3COC3)C4)C2)C1 [Example 18-14, 1-(6-(3-methyl-4-(5-methyl-1H-indazol-4-yl)-7-(3-oxetanyl)-5,6,7,8-tetrahydro-1,7-naphthyridin-2-yl)-2,6-diazaspiro[3.4]octan-2-yl)-2-propen-1-one] |
| – | > 5000 | > 5000 | 137 | – | – | C=CC(=O)N1CC2(CCN(c3nc4c(c(-c5cc(O)cc6nccnc56)c3C#N)C[C@H]3C[C@@H]4C3(C)C)C2)C1 (single isomer, unassigned) [Example 12-38] |
| – | 24600 | 13400 | 124 | – | – | C=CC(=O)N1CC2(CCN(c3nc4c(F)cccc4c(-c4c(C)ccc5[nH]ncc45)c3C#N)C2CF)C1 (stereo not drawn) [Example 1-49, 8-fluoro-2-(5-(fluoromethyl)-2-(2-propenoyl)-2,6-diazaspiro[3.4]octan-6-yl)-4-(5-methyl-1H-indazol-4-yl)-3-quinolinecarbonitrile] |
| 136 | 2280 | 7260 | – | – | – | C=CC(=O)N1CC2(CCN(c3nc4c(c(-c5ccccc5O)c3C#N)CCC(c3scnc3C)=C4)C2)C1 [Example 23-40, 4-(2-hydroxyphenyl)-7-(4-methyl-1,3-thiazol-5-yl)-2-(2-(2-propenoyl)-2,6-diazaspiro[3.4]octan-6-yl)-5,6-dihydro-3-quinolinecarbonitrile] |
| 6880 | – | – | – | 804 | > 20000 | C=CC(=O)N1CC2(CCN(c3nc4c(c(-c5c(C)ccc6[nH]ncc56)c3C)CCN(C(C)C)C4)C2)C1 (single isomer, unassigned) [Example 18-22, (M)-1-(6-(3-methyl-4-(5-methyl-1H-indazol-4-yl)-7-(2-propanyl)-5,6,7,8-tetrahydro-1,7-naphthyridin-2-yl)-2,6-diazaspiro[3.4]octan-2-yl)-2-propen-1-one] |
